Assays:
[1] = Particle size by DLS (Zetasizer Nano ZS90); format: physicochemical; conditions: dispersant water, 25° C.
Description: Instrument: Zetasizer Nano ZS90
The particle size of the powder was measured by Zetasizer of Malvern Panalytical Ltd. (UK) using […], and the particle size was measured after dispersing the sample in tertiary distilled water using the model name NANO ZS ZS90.

[2] = Dispersibility evaluation: transmission through PVDF 0.45 μm filter in pH 4.5 buffer, measured by HPLC; format: physicochemical; conditions: 38° C.
Description: Confirmation Experiment by Difference in Particle Size and Concentration in Weakly Acidic Solvent of Metal Phase Transformation Compound and Peptide (PalGHK)
PVDF 0.45 μm filter is used
Measurement is performed using HPLC with stirring for 24 hours.
Temperature conditions similar to the temperature inside the body (38° C.) is maintained
The solvent is the same as the pH 4.5 buffer, and experiment is performed at 500 or 1000 ppm based on the peptide content of the sample raw material.
Concentration is calculated based on the peptide content (approximately 71%) in the metal compound.
Concentration is calculated based on the peptide content (about 83%) in the peptide (palGHK).

average size (DLS) of transmitted particles ([1]; 500 ppm): 13.09 nm
average size (DLS) of transmitted particles ([1]; 1000 ppm): 12.18 nm
dispersibility (filter transmission) ([2]; 500 ppm based on peptide content, time 0 hr): 0%
dispersibility (filter transmission) ([2]; 500 ppm based on peptide content, time 2 hr): 21.3%
dispersibility (filter transmission) ([2]; 500 ppm based on peptide content, time 4 hr): 27.4%
dispersibility (filter transmission) ([2]; 500 ppm based on peptide content, time 6 hr): 37.6%
dispersibility (filter transmission) ([2]; 500 ppm based on peptide content, time 8 hr): 39.8%
dispersibility (filter transmission) ([2]; 500 ppm based on peptide content, time 10 hr): 37.8%
dispersibility (filter transmission) ([2]; 500 ppm based on peptide content, time 12 hr): 35.6%
dispersibility (filter transmission) ([2]; 500 ppm based on peptide content, time 12 hr, listed as peptide): about 35%
dispersibility (filter transmission) ([2]; 1000 ppm based on peptide content, time 0 hr): 0%
dispersibility (filter transmission) ([2]; 1000 ppm based on peptide content, time 2 hr): 18.7%
dispersibility (filter transmission) ([2]; 1000 ppm based on peptide content, time 4 hr): 27.8%
dispersibility (filter transmission) ([2]; 1000 ppm based on peptide content, time 6 hr): 33.2%
dispersibility (filter transmission) ([2]; 1000 ppm based on peptide content, time 8 hr): 42.9%
dispersibility (filter transmission) ([2]; 1000 ppm based on peptide content, time 10 hr): 47.8%
dispersibility (filter transmission) ([2]; 1000 ppm based on peptide content, time 12 hr): 47.8%
dispersibility (filter transmission) ([2]; 1000 ppm based on peptide content, time 12 hr, listed as peptide): about 47%
Substance: palmitoyl-GHK [palGHK]

From patent publication US11396453B2, “Metal compound having phase transformation and method of preparing the same” (WEBIOTREE CO., LTD, priority 2020, dated 2022)
